Reference: ChEMBL document CHEMBL6078707, “Preferential Synaptic Type of GABA-A Receptor Ligands Enhancing Neuronal Survival and Facilitating Functional Recovery After Ischemic Stroke” (J Med Chem, 2024)

Columns and labels:
[1] = Thermodynamic solubility of compound in phosphate buffer at pH 7.4 at 2 mg measured after 24 hrs by HPLC analysis; type: physicochemical; conditions: read-out: Therm_solubility
[2] = Permeability of compound in PBS buffer at pH7.4 at 100 uM incubated for 5 hrs by UPLC-MS based PAMPA assay; type: ADME; conditions: pH 7.4, read-out: permeability
[3] = Permeability across basolateral to apical side in MDCKII-MDR1 cells at pH 7.4; type: ADME, cell-based, Canis lupus familiaris; conditions: dog, MDCK-MDR1, pH 7.4
[4] = Drug distribution in MCAO-reperfusion induced male Sprague-Dawley rat brain at 1.5 mg/kg, ip administered once daily for 3 days starting from 1.5 hrs post reperfusion by DESI mass spectrometric imaging analysis; type: ADME, organism-based; conditions: in vivo, 72 h, time 3 day
[5] = AUC (0 to t) in male Sprague-Dawley rat brain at 3 mg/kg, ip measured after 480 mins by LC-ESI/MS-MS analysis; type: ADME, organism-based; conditions: in vivo, 8 h
[6] = MRT in male Sprague-Dawley rat plasma at 3 mg/kg, ip measured after 480 mins by LC-ESI/MS-MS analysis; type: ADME, organism-based
[7] = Unbound drug concentration in male Sprague-Dawley rat plasma at 3 mg/kg, ip measured after 480 mins by LC-ESI/MS-MS analysis; type: ADME, organism-based; conditions: in vivo, 8 h
[8] = Clearance in male Sprague-Dawley rat at 5 mg/kg, ip measured after 480 mins by LC-ESI/MS-MS analysis; type: ADME, organism-based; conditions: in vivo
[9] = Cmax in male Sprague-Dawley rat brain at 3 mg/kg, ip measured after 480 mins by LC-ESI/MS-MS analysis; type: ADME, organism-based
[10] = Tmax in male Sprague-Dawley rat brain at 3 mg/kg, ip measured after 480 mins by LC-ESI/MS-MS analysis; type: ADME, organism-based
[11] = AUC (0 to t) in male Sprague-Dawley rat at 5 mg/kg, ip measured after 480 mins by LC-ESI/MS-MS analysis; type: ADME, organism-based; conditions: in vivo
[12] = Metabolic stability in human liver microsomes assessed as half-life; type: ADME, Microsome
[13] = Tmax in male Sprague-Dawley rat brain at 3 mg/kg, iv measured after 480 mins by LC-ESI/MS-MS analysis; type: ADME, organism-based
[14] = Volume of distribution in male Sprague-Dawley rat plasma at 3 mg/kg, iv measured after 480 mins by LC-ESI/MS-MS analysis; type: ADME, organism-based
[15] = Metabolic stability in human liver microsomes assessed as intrinsic clearance; type: ADME, Microsome; conditions: read-out: CLH
[16] = Permeability across apical to basolateral side in MDCKII-MDR1 cells at pH 7.4; type: ADME, cell-based, Canis lupus familiaris; conditions: dog, MDCK-MDR1, pH 7.4; read-out: permeability
[17] = MRT in male Sprague-Dawley rat at 5 mg/kg, ip measured after 480 mins by LC-ESI/MS-MS analysis; type: ADME, organism-based; conditions: in vivo
[18] = MRT in male Sprague-Dawley rat brain at 3 mg/kg, ip measured after 480 mins by LC-ESI/MS-MS analysis; type: ADME, organism-based
[19] = AUC (0 to t) in male Sprague-Dawley rat plasma at 3 mg/kg, ip measured after 480 mins by LC-ESI/MS-MS analysis; type: ADME, organism-based
[20] = Terminal half-life in male Sprague-Dawley rat plasma at 3 mg/kg, iv measured after 480 mins by LC-ESI/MS-MS analysis; type: ADME, organism-based; conditions: read-out: beta t1/2
[21] = Cmax in male Sprague-Dawley rat at 5 mg/kg, ip measured after 480 mins by LC-ESI/MS-MS analysis; type: ADME, organism-based; conditions: in vivo
[22] = MRT in male Sprague-Dawley rat brain at 3 mg/kg, iv measured after 480 mins by LC-ESI/MS-MS analysis; type: ADME, organism-based
[23] = Terminal half-life in male Sprague-Dawley rat brain at 3 mg/kg, iv measured after 480 mins by LC-ESI/MS-MS analysis; type: ADME, organism-based; conditions: read-out: beta t1/2
[24] = AUC (0 to t) in male Sprague-Dawley rat plasma at 3 mg/kg, iv measured after 480 mins by LC-ESI/MS-MS analysis; type: ADME, organism-based; conditions: in vivo, 8 h
[25] = Tmax in male Sprague-Dawley rat plasma at 3 mg/kg, ip measured after 480 mins by LC-ESI/MS-MS analysis; type: ADME, organism-based
[26] = Clearance in male Sprague-Dawley rat plasma at 3 mg/kg, iv measured after 480 mins by LC-ESI/MS-MS analysis; type: ADME, organism-based
[27] = Terminal half-life in male Sprague-Dawley rat brain at 3 mg/kg, ip measured after 480 mins by LC-ESI/MS-MS analysis; type: ADME, organism-based; conditions: read-out: beta t1/2
[28] = Unbound drug concentration in male Sprague-Dawley rat brain at 3 mg/kg, ip measured after 480 mins by LC-ESI/MS-MS analysis; type: ADME, organism-based; conditions: in vivo, 8 h
[29] = AUC (0 to t) in male Sprague-Dawley rat brain at 3 mg/kg, iv measured after 480 mins by LC-ESI/MS-MS analysis; type: ADME, organism-based; conditions: in vivo, 8 h
[30] = Cmax in male Sprague-Dawley rat brain at 3 mg/kg, iv measured after 480 mins by LC-ESI/MS-MS analysis; type: ADME, organism-based
[31] = Drug metabolism in human liver microsomes assessed as hydroxylation mediated metabolite formation by LCMS analysis; type: ADME, Microsome
[32] = Volume of distribution in male Sprague-Dawley rat at 5 mg/kg, ip measured after 480 mins by LC-ESI/MS-MS analysis; type: ADME, organism-based; conditions: in vivo, 8 h
[33] = Cmax in male Sprague-Dawley rat plasma at 3 mg/kg, ip measured after 480 mins by LC-ESI/MS-MS analysis; type: ADME, organism-based
[34] = MRT in male Sprague-Dawley rat plasma at 3 mg/kg, iv measured after 480 mins by LC-ESI/MS-MS analysis; type: ADME, organism-based
[35] = Terminal half-life in male Sprague-Dawley rat plasma at 3 mg/kg, ip measured after 480 mins by LC-ESI/MS-MS analysis; type: ADME, organism-based; conditions: read-out: beta t1/2
[36] = Terminal half-life in male Sprague-Dawley rat at 5 mg/kg, ip measured after 480 mins by LC-ESI/MS-MS analysis; type: ADME, organism-based; conditions: in vivo, read-out: beta t1/2
[37] = Half-life in male Sprague-Dawley rat at 5 mg/kg, ip by HPLC analysis; type: ADME, organism-based; conditions: in vivo
[38] = Half-life in human plasma; type: ADME, cell-free

## Cc1ccc2nc(-c3ccc(F)cc3)c(CC(=O)N3CCOCC3)n2n1.O=C(O)C(O)C(O)C(=O)O
[1]
  solubility thermodynamic at 24 h: 1590 µg/mL
[2]
  Papp at 5 h, 100 µM: 9.99 ×10⁻⁶ cm/s

## Cc1ccc2nc(-c3ccc(F)cc3)c(CC(=O)N3CCCC3)n2n1.O=C(O)C(O)C(O)C(=O)O
[2]
  Papp at 5 h, 100 µM: 22.9 ×10⁻⁶ cm/s

## COc1ccc(NC(=O)Cc2c(-c3ccc(F)cc3)nc3ccc(C)cn23)cc1.O=C(O)C(O)C(O)C(=O)O
[2]
  Papp at 5 h, 100 µM: 1.03 ×10⁻⁶ cm/s

## COc1ccc(NC(=O)Cc2c(-c3ccc(F)cc3)nc3ccc(C)nn23)cc1.O=C(O)C(O)C(O)C(=O)O
[1]
  solubility thermodynamic at 24 h: 130 µg/mL
[2]
  Papp at 5 h, 100 µM: 433 ×10⁻⁶ cm/s

## Cc1ccc2nc(-c3ccc(F)cc3)c(CC(=O)Nc3ccccc3)n2c1.O=C(O)C(O)C(O)C(=O)O
[2]
  Papp at 5 h, 100 µM: 5.29 ×10⁻⁶ cm/s

## Cc1ccc2nc(-c3ccc(F)cc3)c(CC(=O)Nc3ccccc3F)n2c1.O=C(O)C(O)C(O)C(=O)O
[2]
  Papp at 5 h, 100 µM: 6.25 ×10⁻⁶ cm/s

## Cc1ccc2nc(-c3ccc(F)cc3)c(CC(=O)Nc3ccc(F)cc3)n2c1.O=C(O)C(O)C(O)C(=O)O
[2]
  Papp at 5 h, 100 µM: 6.06 ×10⁻⁶ cm/s

## Cc1ccc2nc(-c3ccc(F)cc3)c(CC(=O)N3CCSCC3)n2n1.O=C(O)C(O)C(O)C(=O)O
[1]
  solubility thermodynamic at 24 h: 320 µg/mL
[2]
  Papp at 5 h, 100 µM: 11.7 ×10⁻⁶ cm/s

## Cc1ccc2nc(-c3ccc(F)cc3)c(CC(=O)N(C)C)n2n1.O=C(O)C(O)C(O)C(=O)O
[1]
  solubility thermodynamic at 24 h: > 2000 µg/mL
[2]
  Papp at 5 h, 100 µM: 9.79 ×10⁻⁶ cm/s

## Cc1ccc2nc(-c3ccc(F)cc3)c(CC(=O)N3CCCC3)n2c1.O=C(O)C(O)C(O)C(=O)O
[3]
  Papp B→A: 29.7 ×10⁻⁶ cm/s
[4]
  Drug uptake: Active
[5]
  AUCt: 8229 ng·min/g
[6]
  MRT: 50.9 min
[7]
  Drug uptake(free): 2482.75 nM
[8]
  CL/F: 2.35 mL/min
[9]
  Cmax: 220 ng/g
[10]
  Tmax: 5 min
[11]
  AUC(0-t) at 8 h: 39 ng·h/mL
[12]
  half-life: 176 min
[13]
  Tmax: 5 min
[14]
  Vd: 0.383 L/kg
[15]
  microsomal CLint: 9.8 µL/min/mg
[16]
  Papp A→B: 55.6 ×10⁻⁶ cm/s
[17]
  MRT: 27.6 min
[18]
  MRT: 102 min
[19]
  AUC(0-t) at 8 h: 2140 ng·h/mL
[1]
  solubility thermodynamic at 24 h: 1870 µg/mL
[20]
  half-life: 47.8 min
[21]
  Cmax: 2340 ng/mL
[22]
  MRT: 65.5 min
[23]
  half-life: 135 min
[24]
  AUCt: 538253 ng·min/g
[25]
  Tmax: 5 min
[26]
  clearance: 5.56 mL/min/kg
[27]
  half-life: 653 min
[28]
  Cp(f): 348.03 nM
[29]
  AUCt: 15265 ng·min/g
[30]
  Cmax: 445 ng/g
[31]
  Drug metabolism: metabolite_detected
[2]
  Papp at 5 h, 100 µM: 29.7 ×10⁻⁶ cm/s
[32]
  Vd: 0.104 L/kg
[33]
  Cmax: 4500 ng/mL
[34]
  MRT: 39.7 min
[35]
  half-life: 270 min
[36]
  half-life: 30.6 min

## Cn1c(=O)c2c(ncn2C)n(C)c1=O [CAFFEINE]
[2]
  Papp at 5 h, 100 µM: 15.2 ×10⁻⁶ cm/s

## CCN1CCCC1CNC(=O)c1cc(S(N)(=O)=O)ccc1OC (stereo not given) [SULPIRIDE]
[2]
  Papp at 5 h, 100 µM: 0.016 ×10⁻⁶ cm/s

## Cc1ccc(-c2nc3ccc(C)cn3c2CC(=O)N(C)C)cc1.Cc1ccc(-c2nc3ccc(C)cn3c2CC(=O)N(C)C)cc1.O=C(O)C(O)C(O)C(=O)O [ZOLPIDEM TARTRATE]
[2]
  Papp at 5 h, 100 µM: 21.6 ×10⁻⁶ cm/s

## Cc1ccc(-c2nc3ccc(C)cn3c2CC(=O)N(C)C)cc1 [ZOLPIDEM]
[37]
  half-life: 30.6 min
[38]
  half-life: 120 min
[1]
  solubility thermodynamic at 24 h: > 2000 µg/mL
